Test results: patent US20230106032A1, “IMIDAZOTRIAZINES ACTING ON CANCER VIA INHIBITION OF CDK12” (Bayer Aktiengesellschaft, priority 2020, published 2023)

Legend:
[1] = target: T1, CDK2/CycE (Homo sapiens, UniProt P24941); experiment: CDK2/CycE kinase assay (TR-FRET, 2 mM ATP); assay type: biochemical; conditions: read-out: CDK2/CyclinE, 2 mM ATP (high ATP) IC50-[mol/l] (median)
T1 construct: purchased ProQinase GmbH (Freiburg, Germany); host or cells: insect cells (Sf9)
Excerpt: CDK2/CycE-inhibitory activity of compounds of the present invention was quantified employing the CDK2/CycE TR-FRET assay as described in the following paragraphs.
Recombinant fusion proteins of GST and human CDK2 and of GST and human CycE, expressed in insect cells (Sf9) and purified by Glutathion-Sepharose affinity chromatography, were purchase from ProQinase GmbH (Freiburg, Germany). As substrate for the kinase reaction biotinylated peptide biotin-Ttds-YISPLKSPYKISEG (C-terminus in amid form) was used which can be purchased e.g. form the company JERINI peptide technologies (Berlin, Germany).
For the assay 50 nanoL of a 100 fold concentrated solution of the test compound in DMSO was pipetted into a black low volume 384 well microtiter plate or a black 1536 well microtiter plate (both Greiner Bio-One, Frickenhausen, Germany), 2 microL of a solution of CDK2/CycE in aqueous assay buffer [50 millimol/L Tris/HCl pH 8.0, 10 millimol/L MgCl2, 1.0 millimol/L dithiothreitol, 0.1 millimol/L sodium ortho-vanadate, 0.01% (v/v) Nonidet-P40 (Sigma)] were added and the mixture was incubated for 15 min at 22° C. to allow pre-binding of the test compounds to the enzyme before the start of the kinase reaction. Then the kinase reaction was started by the addition of 3 microL of a solution of adenosine-tri-phosphate (ATP, 3.33 millimol/L=> final conc. in the 5 microL assay volume is 2 millimol/L) and substrate (1.25 micromol/L=> final conc. in the 5 microL assay volume is 0.75 micromol/L) in assay buffer and the resulting mixture was incubated for a reaction time of 25 min at 22° C. The concentration of CDK2/CycE was adjusted depending of the activity of the enzyme lot and was chosen appropriate to have the assay in the linear range, typical concentrations were in the range of 10 ng/ml. The reaction was stopped by the addition of 3 microL of a solution of TR-FRET detection reagents (0.333 micromol/L streptavidine-XL665 [Cisbio Bioassays, Codolet, France] and 1.67 nanomol/L anti-RB(pSer807/pSer8l 1)-antibody from BD Pharmingen [#558389] and 2 nanomol/L LANCE EU-W1024 labeled anti-mouse IgG antibody [Perkin-Elmer, product no. AD0077, as an alternative a Terbium-cryptate-labeled anti-mouse IgG antibody from Cisbio Bioassays can be used]) in an aqueous EDTA-solution (167 millimol/L EDTA, 0.2% (w/v) bovine serum albumin in 100 millimol/L HEPES pH 7.5).
The resulting mixture was incubated 1 h at 22° C. to allow the formation of complex between the phosphorylated biotinylated peptide and the detection reagents. Subsequently the amount of phosphorylated substrate was evaluated by measurement of the resonance energy transfer from the Eu-chelate to the streptavidine-XL. Therefore, the fluorescence emissions at 620 nm and 665 nm after excitation at 350 nm was measured in a TR-FRET reader, e.g. a Pherastar (BMG Labtechnologies, Offenburg, Germany) or a Viewlux (Perkin-Elmer). The ratio of the emissions at 665 nm and at […] was taken as the measure for the amount of phosphorylated substrate. The data were normalised (enzyme reaction without inhibitor=0% inhibition, all other assay components but no enzyme=100% inhibition).

[2] = test system: MDA-MB-231 human breast cancer cells; experiment: Proliferation assay MDA-MB-231 (crystal violet); assay type: cell-based; conditions: 96 h, MDA-MB-231 cells, 4 days, read-out: Prolif-MDA MB231 IC50-[mol/l] (median)
Protocol: Human tumour cells were originally obtained from the American Type Culture Collection (ATCC), or from the Deutsche Sammlung von Mikroorganismen und Zellkulturen (DSMZ, German Collection of Microorganisms and Cell Cultures). Cultivated tumour cells (CAL-120, human breast adenocarcinoma cells, DSMZ ACC-459; MDA-MB-231, human breast cancer cells, ATCC HTB-26) were plated at a density of 4,000 cells/well in a 96-well multititer plate in 200 microL of their respective growth medium supplemented 10% fetal calf serum. After 24 hours, the cells of one plate (zero-point plate) were stained with crystal violet (see below), while the medium of the other plates was supplemented with the test substances in various concentrations (0 micromol/L, as well as in the range of 0.01-10 micromol/L; the final concentration of the solvent dimethyl sulfoxide was adjusted to 0.1%) using a Tecan HP D300 Digital Dispenser. The cells were incubated for 4 days in the presence of test substances. Cell proliferation was determined by staining the cells with crystal violet: the cells were fixed by adding 20 microL/measuring point of an 11% glutaric aldehyde solution for 15 minutes at room temperature. After three washing cycles of the fixed cells with water, the plates were dried at room temperature. The cells were stained by adding 100 microL/measuring point of a 0.1% crystal violet solution (pH 3.0). After three washing cycles of the stained cells with water, the plates were dried at room temperature. The dye was dissolved by adding 100 microL/measuring point of a 10% acetic acid solution. The extinction was determined by photometry at a wavelength of 595 nm. The change of cell number, in percent, was calculated by normalization of the measured values to the extinction values of the zero-point plate (=0%) and the extinction of the untreated (0 μM) cells (=100%). The IC50 values (inhibitory concentration at 50% of maximal effect) were determined by means of a 4 parameter fit.

[3] = target: T2, CDK12 (Homo sapiens, UniProt Q9NYV4); experiment: CDK12 nuclear protein level: immunofluorescence/high content analysis in CAL-120 cells; assay type: cell-based; conditions: for DC50: CAL-120 cells, 24 h, nuclear CDK12 staining, read-out: CDK12 degradation IF DC50-[mol/l] (median); for (IC50 CDK12 high ATP) to (Degradation DC50 CDK12) ratio: IC50 CDK12 hATP (Table 2) divided by DC50 CDK12 IF (Table 8)
T2 construct: endogenous in cells; host or cells: CAL-120 human breast cancer cells (DSMZ ACC 459)
T2 sequence (Q9NYV4 whole entry): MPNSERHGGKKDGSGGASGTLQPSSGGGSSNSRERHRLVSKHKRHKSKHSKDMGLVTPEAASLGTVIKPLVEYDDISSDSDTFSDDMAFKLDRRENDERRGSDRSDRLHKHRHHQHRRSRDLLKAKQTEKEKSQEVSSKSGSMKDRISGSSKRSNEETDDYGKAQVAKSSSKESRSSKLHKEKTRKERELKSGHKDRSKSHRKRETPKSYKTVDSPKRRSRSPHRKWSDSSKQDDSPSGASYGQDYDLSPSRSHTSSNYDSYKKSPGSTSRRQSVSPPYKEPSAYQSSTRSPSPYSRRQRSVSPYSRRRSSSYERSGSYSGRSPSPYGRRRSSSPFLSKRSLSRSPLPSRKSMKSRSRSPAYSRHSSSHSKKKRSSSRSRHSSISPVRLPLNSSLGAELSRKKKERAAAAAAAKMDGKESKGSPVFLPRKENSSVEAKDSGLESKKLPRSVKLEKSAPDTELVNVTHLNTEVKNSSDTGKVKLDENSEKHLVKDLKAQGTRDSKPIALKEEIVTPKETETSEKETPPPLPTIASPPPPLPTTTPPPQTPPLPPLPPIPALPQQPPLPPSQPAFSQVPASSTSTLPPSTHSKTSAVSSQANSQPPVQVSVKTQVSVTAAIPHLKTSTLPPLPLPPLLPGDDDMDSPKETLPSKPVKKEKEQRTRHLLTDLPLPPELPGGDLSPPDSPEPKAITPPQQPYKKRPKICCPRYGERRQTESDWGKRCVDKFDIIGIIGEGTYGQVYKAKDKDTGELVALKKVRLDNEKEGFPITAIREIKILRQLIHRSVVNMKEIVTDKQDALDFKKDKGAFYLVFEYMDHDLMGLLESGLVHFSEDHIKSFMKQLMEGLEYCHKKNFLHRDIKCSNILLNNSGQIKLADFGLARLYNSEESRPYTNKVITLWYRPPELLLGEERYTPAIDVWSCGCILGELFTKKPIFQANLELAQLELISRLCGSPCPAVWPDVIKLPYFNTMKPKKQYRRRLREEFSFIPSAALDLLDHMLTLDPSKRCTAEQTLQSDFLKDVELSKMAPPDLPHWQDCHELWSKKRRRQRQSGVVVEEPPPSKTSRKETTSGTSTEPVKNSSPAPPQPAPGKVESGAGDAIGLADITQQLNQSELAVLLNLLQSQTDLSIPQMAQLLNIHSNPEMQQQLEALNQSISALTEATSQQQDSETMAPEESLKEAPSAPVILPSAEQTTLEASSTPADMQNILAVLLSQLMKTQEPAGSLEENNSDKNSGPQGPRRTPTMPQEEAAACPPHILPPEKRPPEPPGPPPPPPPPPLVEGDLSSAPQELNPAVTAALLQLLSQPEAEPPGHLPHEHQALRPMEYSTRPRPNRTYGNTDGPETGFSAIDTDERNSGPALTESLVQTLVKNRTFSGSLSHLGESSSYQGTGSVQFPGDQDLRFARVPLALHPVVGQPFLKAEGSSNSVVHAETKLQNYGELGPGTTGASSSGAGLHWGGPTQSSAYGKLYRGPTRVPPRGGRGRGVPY
T2 sequence (O75909 whole entry partner): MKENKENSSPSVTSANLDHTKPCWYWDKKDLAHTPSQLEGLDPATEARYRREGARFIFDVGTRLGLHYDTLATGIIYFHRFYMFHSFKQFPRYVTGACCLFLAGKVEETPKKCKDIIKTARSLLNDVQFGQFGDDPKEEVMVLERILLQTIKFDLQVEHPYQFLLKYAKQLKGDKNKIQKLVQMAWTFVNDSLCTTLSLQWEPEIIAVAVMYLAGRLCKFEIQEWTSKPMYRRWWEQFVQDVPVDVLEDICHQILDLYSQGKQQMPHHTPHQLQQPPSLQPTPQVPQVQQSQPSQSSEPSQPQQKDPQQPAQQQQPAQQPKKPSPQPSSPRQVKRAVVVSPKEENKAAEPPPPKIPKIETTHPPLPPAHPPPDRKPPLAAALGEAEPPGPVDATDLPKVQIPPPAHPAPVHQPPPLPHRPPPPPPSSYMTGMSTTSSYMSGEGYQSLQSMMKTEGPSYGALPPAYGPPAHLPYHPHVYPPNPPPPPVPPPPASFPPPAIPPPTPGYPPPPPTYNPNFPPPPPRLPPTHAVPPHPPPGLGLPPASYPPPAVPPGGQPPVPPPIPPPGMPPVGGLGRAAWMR
Protocol: In the context of the present invention, the term “DC50 CDK12” refers to the DC50 values obtained according to the assay described in this section (6) herein below, i.e. the DC50 values for the degradation of CDK12.
CAL-120 human breast cancer cells (DSMZ ACC 459) are seeded in 1536-well microtiter plates (800 cells per well) containing 50 nanoL of compounds in Dose-Response. Control wells received DMSO or Reference Example 1. Plates are then incubated for 24 h at 37° C. in an humidified incubator and fixed with 4% PFA for 10 min. Then immunofluorescence (IF) against CDK12 (CellSignalling CDK12 Antibody #11973, rabbit, 1:100 dilution) is performed using standard IF protocols. Cells are then stained with Hoechst 33342 (Life Technologies, H-1399, 0.1 microg/ml) and imaged on an automated confocal microscopy system (e.g. Perkin Elmer Opera Phenix). Nuclear and cytoplasmic intensity as well as the nuclear/cytoplasmic intensity ratio is determined by automated image analysis using custom generated scripts (MetaXpress). Data is then transferred to Genedata Screener software, normalized to DMSO and control and DC50 values (degrading concentration to achieve 50% reduction of nuclear CDK12 staining intensity relative to controls) are reported.

Brc1cnc2c(NCc3nc4ccccc4[nH]3)nc(N3CCOCC3)nn12 [Example 1, N-[(1H-benzimidazol-2-yl)methyl]-7-bromo-2-(morpholin-4-yl)imidazo[2,1-f][1,2,4]triazin-4-amine]
IC50 [1]: 11.7 µM | IC50 [2]: 0.042 µM | DC50 [3]: 0.0068 µM | (IC50 CDK12 high ATP) to (Degradation DC50 CDK12) ratio [3]: 751

CN(CC(C)(C)O)c1nc(NCc2nc3ccccc3[nH]2)c2ncc(C(F)(F)F)n2n1 [Example 30, 1-[{4-[(1H-benzimidazol-2-ylmethyl)amino]-7-(trifluoromethyl)imidazo[2,1-f][1,2,4]triazin-2-yl}(methyl)amino]-2-methylpropan-2-ol]
IC50 [1]: 4.78 µM | IC50 [2]: 0.0173 µM | DC50 [3]: 0.0138 µM | (IC50 CDK12 high ATP) to (Degradation DC50 CDK12) ratio [3]: 12

C[C@@H]1CN(c2nc(NCc3nc4c(F)c(F)ccc4[nH]3)c3ncc(Br)n3n2)C[C@H](C)N1 [Example 11, 7-bromo-N-[(4,5-difluoro-1H-benzimidazol-2-yl)methyl]-2-[rel-(3R,5S)-3,5-dimethylpiperazin-1-yl]imidazo[2,1-f][1,2,4]triazin-4-amine]
IC50 [1]: > 20 µM | IC50 [2]: 0.000948 µM | DC50 [3]: 0.000111 µM | (IC50 CDK12 high ATP) to (Degradation DC50 CDK12) ratio [3]: 5221

C[C@@H]1CN(c2nc(NCc3nc4c(F)c(F)ccc4[nH]3)c3ncc(Br)n3n2)C[C@H](C)O1 [Example 5, 7-bromo-N-[(4,5-difluoro-1H-benzimidazol-2-yl)methyl]-2-[rel-(2R,6S)-2,6-dimethylmorpholin-4-yl]imidazo[2,1-f][1,2,4]triazin-4-amine]
IC50 [1]: > 20 µM | DC50 [3]: 0.00207 µM | (IC50 CDK12 high ATP) to (Degradation DC50 CDK12) ratio [3]: 66

C[C@@H]1CN(c2nc(NCc3nc4cc(F)ccc4[nH]3)c3ncc(Br)n3n2)C[C@H](C)N1 [Example 19, 7-bromo-2-[rel-(3R,5S)-3,5-dimethylpiperazin-1-yl]-N-[(5-fluoro-1H-benzimidazol-2-yl)methyl]imidazo[2,1-f][1,2,4]triazin-4-amine]
IC50 [1]: > 20 µM | IC50 [2]: 0.00273 µM | DC50 [3]: 0.000513 µM | (IC50 CDK12 high ATP) to (Degradation DC50 CDK12) ratio [3]: 12546

Fc1cccc2[nH]c(CNc3nc(N4CCNCC4)nn4c(Br)cnc34)nc12 [Example 22, 7-bromo-N-[(4-fluoro-1H-benzimidazol-2-yl)methyl]-2-(piperazin-1-yl)imidazo[2,1-f][1,2,4]triazin-4-amine]
IC50 [2]: 0.00441 µM | DC50 [3]: 0.00196 µM | (IC50 CDK12 high ATP) to (Degradation DC50 CDK12) ratio [3]: 1305

C[C@@H]1CN(c2nc(NCc3nc4ccccc4[nH]3)c3ncc(Br)n3n2)C[C@H](C)O1 [Example 4, N-[(1H-benzimidazol-2-yl)methyl]-7-bromo-2-[rel-(2R,6S)-2,6-dimethylmorpholin-4-yl]imidazo[2,1-f][1,2,4]triazin-4-amine]
IC50 [1]: > 20 µM | IC50 [2]: 0.0592 µM | DC50 [3]: 0.013 µM | (IC50 CDK12 high ATP) to (Degradation DC50 CDK12) ratio [3]: 76

CN1CCN(c2nc(NCc3nc4c(F)cccc4[nH]3)c3ncc(Br)n3n2)CC1 [Example 23, 7-bromo-N-[(4-fluoro-1H-benzimidazol-2-yl)methyl]-2-(4-methylpiperazin-1-yl)imidazo[2,1-f][1,2,4]triazin-4-amine]
IC50 [1]: > 20 µM | IC50 [2]: 0.0343 µM | DC50 [3]: 0.00404 µM | (IC50 CDK12 high ATP) to (Degradation DC50 CDK12) ratio [3]: 2680

Fc1cccc(-c2cnc3c(NCc4nc5ccccc5[nH]4)nc(N4CCOCC4)nn23)c1 [Example 3, N-[(1H-benzimidazol-2-yl)methyl]-7-(3-fluorophenyl)-2-(morpholin-4-yl)imidazo[2,1-f][1,2,4]triazin-4-amine]
IC50 [1]: > 20 µM | DC50 [3]: 0.036 µM | (IC50 CDK12 high ATP) to (Degradation DC50 CDK12) ratio [3]: >556

C[C@@H]1CN(c2nc(NCc3nc4c(F)cccc4[nH]3)c3ncc(Br)n3n2)C[C@H](C)N1 [Example 18, 7-bromo-2-[rel-(3R,5S)-3,5-dimethylpiperazin-1-yl]-N-[(4-fluoro-1H-benzimidazol-2-yl)methyl]imidazo[2,1-f][1,2,4]triazin-4-amine]
IC50 [1]: > 20 µM | IC50 [2]: 0.00345 µM | DC50 [3]: 0.000631 µM | (IC50 CDK12 high ATP) to (Degradation DC50 CDK12) ratio [3]: 2854

CN1CCN(c2nc(NCc3nc4ccccc4[nH]3)c3ncc(Br)n3n2)CC1 [Example 6, N-[(1H-benzimidazol-2-yl)methyl]-7-bromo-2-(4-methylpiperazin-1-yl)imidazo[2,1-f][1,2,4]triazin-4-amine]
IC50 [1]: > 20 µM | IC50 [2]: 0.071 µM | DC50 [3]: 0.00384 µM | (IC50 CDK12 high ATP) to (Degradation DC50 CDK12) ratio [3]: >4836

Fc1ccc2[nH]c(CNc3nc(N4CCOCC4)nn4c(Br)cnc34)nc2c1 [Example 20, 7-bromo-N-[(5-fluoro-1H-benzimidazol-2-yl)methyl]-2-(morpholin-4-yl)imidazo[2,1-f][1,2,4]triazin-4-amine]
IC50 [1]: 17.2 µM | IC50 [2]: 0.00373 µM | DC50 [3]: 0.000842 µM | (IC50 CDK12 high ATP) to (Degradation DC50 CDK12) ratio [3]: 4106

N#Cc1cnc2c(NCc3nc4ccccc4[nH]3)nc(N3CCOCC3)nn12 [Example 2, 4-{[(1H-benzimidazol-2-yl)methyl]amino}-2-(morpholin-4-yl)imidazo[2,1-f][1,2,4]triazine-7-carbonitrile]
IC50 [1]: > 20 µM | DC50 [3]: 0.00483 µM | (IC50 CDK12 high ATP) to (Degradation DC50 CDK12) ratio [3]: 1444

OC[C@@H]1CCCCN1c1nc(NCc2nc3ccccc3[nH]2)c2ncc(Br)n2n1 [Example 17, [(2S)-1-(4-{[(1H-benzimidazol-2-yl)methyl]amino}-7-bromoimidazo[2,1-f][1,2,4]triazin-2-yl)piperidin-2-yl]methanol]
IC50 [1]: 1.41 µM | DC50 [3]: 0.00762 µM | (IC50 CDK12 high ATP) to (Degradation DC50 CDK12) ratio [3]: 15
